Among the data in publication PMC9828493, “Design, Synthesis, and in Vitro Evaluation of 4‐(4‐Hydroxyphenyl)piperazine‐Based Compounds Targeting Tyrosinase” (Chemmedchem, 2022) are melting point and IC50 values, retold here.

A word on the melting point: it is the temperature of the solid-liquid transition. As a reminder, the IC50 is the concentration at which inhibition is half-maximal. Higher therefore signals lower potency.

Data set [1] concerns the target TYR from Agaricus bisporus (AbTYR) (Agaricus bisporus, UniProt C7FF04). Nature of the data set: Inhibition of diphenolase activity of AbTYR (L-DOPA as substrate).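 Note: absorbance measured spectrophotometrically with L-DOPA as substrate, inhibition expressed as percent relative to control sample, IC50 interpolated from dose-response curves.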 Conditions: IC50 [μM]±SD, inhibition of diphenolase activity of AbTYR, L-DOPA substrate, three replicates.
Experimental: Mushroom tyrosinase inhibition assay
absorbance was measured after 60 or 1 min of incubation time in the reaction mixture containing
L-tyrosine or L-DOPA, respectively. The inhibitory activity was expressed as inhibition percentage
respect to control sample.
calculated by interpolation of the dose-response curves. Kojic acid [5-hydroxy-2-(hydroxymethyl)-
4H-pyran-4-one], a fungal secondary metabolite used as skin whitening agent, was employed as a
positive standard (10–50 μM). A spectrophotometer (Agilent Cary 60 UV-Vis Spectrophotometer)
was used for absorbance measurements.
Kinetic analysis of the tyrosinase inhibition
The inhibition kinetics on the tyrosinase were studied using Lineweaver-Burk double reciprocal
plots. The reaction mixture consisted of four different concentrations of the substrate L-DOPA
(0.6–5 mM), and mushroom tyrosinase in phosphate buffer (0.05 M, pH 6.8). Three different
concentrations were used for the analysis. Preincubation and measurement time were the same
as discussed in mushroom tyrosinase inhibition assay. The Michaelis-Menten constant (Km) and
maximal velocity (Vmax) of tyrosinase were determined by Lineweaver-Burk plots.

Chain of TYR from Agaricus bisporus (AbTYR) (C7FF04 1-392 limits assumed): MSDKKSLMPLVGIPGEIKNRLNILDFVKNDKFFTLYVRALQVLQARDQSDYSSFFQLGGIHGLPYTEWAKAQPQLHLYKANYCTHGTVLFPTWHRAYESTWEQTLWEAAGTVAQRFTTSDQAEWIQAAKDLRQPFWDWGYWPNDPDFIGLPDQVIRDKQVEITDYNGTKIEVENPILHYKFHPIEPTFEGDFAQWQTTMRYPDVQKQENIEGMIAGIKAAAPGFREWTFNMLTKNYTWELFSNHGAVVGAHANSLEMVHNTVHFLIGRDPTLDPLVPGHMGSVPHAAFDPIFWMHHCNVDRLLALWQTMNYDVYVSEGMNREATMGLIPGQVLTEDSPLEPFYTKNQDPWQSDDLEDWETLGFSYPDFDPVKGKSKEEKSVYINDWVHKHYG

`O=C(c1ccccc1F)N1CCN(c2ccc(O)cc2)CC1` [compound 4, (4‐(4‐Hydroxyphenyl)piperazin‐1‐yl)(2‐fluorophenyl)methanone] returned a melting point of 142 to 143 °C. This molecule also gave an IC50 in data set [1] of 15.2 ± 0.9 µM. The molecule `O=C(c1ccc(Br)cc1Br)N1CCN(c2ccc(O)cc2)CC1` [compound 26, (4‐(4‐Hydroxyphenyl)piperazin‐1‐yl)(2,4‐dibromophenyl)methanone] displayed a melting point of 176 to 177 °C. In data set [1], this molecule came in with an IC50 of 9.5 ± 0.3 µM.

Consider `Nc1ccccc1C(=O)N1CCN(c2ccc(O)cc2)CC1` [compound 32, (4‐(4‐Hydroxyphenyl)piperazin‐1‐yl)(2‐aminophenyl)methanone], for which it took 66.4 ± 2.1 µM to reach half-maximal inhibition in data set [1] (IC50). Molecule `Nc1ccc(C(=O)N2CCN(c3ccc(O)cc3)CC2)c(N)c1` [compound 35, (4‐(4‐Hydroxyphenyl)piperazin‐1‐yl)(2,4‐diaminophenyl)methanone] showed a melting point of 80 to 81 °C. The same molecule registered a half-maximal inhibitory concentration (IC50) in data set [1] of 82.4 ± 1.1 µM. `O=C(c1ccccc1[N+](=O)[O-])N1CCN(c2ccc(O)cc2)CC1` [compound 28, (4‐(4‐hydroxyphenyl)piperazin‐1‐yl)(2‐nitrophenyl)methanone] showed a melting point of 184 to 185 °C. This molecule also showed an IC50 in data set [1] of 7.4 ± 0.7 µM. With `O=C(c1ccccc1)N1CCN(c2ccc(O)cc2)CC1` [compound 2, (4‐(4‐Hydroxyphenyl)piperazin‐1‐yl)(phenyl)methanone], half-maximal inhibition in data set [1] (IC50) was put at 73.2 ± 3.5 µM. Molecule `Nc1ccc(C(=O)N2CCN(c3ccc(O)cc3)CC2)cc1` [compound 34, (4‐(4‐Hydroxyphenyl)piperazin‐1‐yl)(4‐aminophenyl)methanone] yielded a melting point of 94 to 95 °C. This molecule also yielded an IC50 in data set [1] of 43.9 ± 3.4 µM. In data set [1], `COc1ccc(C(=O)N2CCN(c3ccc(O)cc3)CC2)c(OC)c1` [compound 24, [4‐(4‐Hydroxyphenyl)piperazin‐1‐yl](2,4‐dimethoxyphenyl)methanone] returned an IC50 of 16.7 ± 2 µM. For `O=C(c1cccc([N+](=O)[O-])c1)N1CCN(c2ccc(O)cc2)CC1` [compound 29, (4‐(4‐Hydroxyphenyl)piperazin‐1‐yl)(3‐nitrophenyl)methanone], in data set [1], the IC50 stood at 21.8 ± 1.2 µM. In the case of `Nc1cccc(C(=O)N2CCN(c3ccc(O)cc3)CC2)c1` [compound 33, (4‐(4‐Hydroxyphenyl)piperazin‐1‐yl)(3‐aminophenyl)methanone], the melting point was 95 to 96 °C. In addition, the IC50 in data set [1] came to 35.7 ± 1.05 µM. On to `O=C(c1ccc(Cl)cc1)N1CCN(c2ccc(O)cc2)CC1` [compound 9, (4‐(4‐Hydroxyphenyl)piperazin‐1‐yl)(4‐chlorophenyl)methanone], for which half-maximal inhibition in data set [1] (IC50) required 8.9 ± 0.9 µM. For the molecule `O=C(c1cccc(Cl)c1)N1CCN(c2ccc(O)cc2)CC1` [compound 8, (4‐(4‐Hydroxyphenyl)piperazin‐1‐yl)(3‐chlorophenyl)methanone], the melting point lay within 138 to 139 °C. In data set [1], this molecule registered an IC50 of 9 ± 1 µM.

In the case of `O=C(c1ccc(C(F)(F)F)cc1C(F)(F)F)N1CCN(c2ccc(O)cc2)CC1` [compound 20, (4‐(4‐Hydroxyphenyl)piperazin‐1‐yl)(2,4‐bis(trifluoromethyl)phenyl)methanone], the melting point was in the range of 194 to 195 °C. For the same molecule, inhibition in data set [1] was half-maximal at 18.2 ± 2.4 µM (IC50).

`O=C(c1cccc(F)c1)N1CCN(c2ccc(O)cc2)CC1` [compound 5, (4‐(4‐Hydroxyphenyl)piperazin‐1‐yl)(3‐fluorophenyl)methanone] returned a melting point of 145 to 146 °C. This molecule also registered an IC50 in data set [1] of 22.6 ± 1.3 µM. Molecule `COc1cccc(C(=O)N2CCN(c3ccc(O)cc3)CC2)c1` [compound 22, [4‐(4‐Hydroxyphenyl)piperazin‐1‐yl](3‐methoxyphenyl)methanone] displayed an IC50 in data set [1] of 9.8 ± 0.4 µM. `O=C(c1cccc(C(F)(F)F)c1)N1CCN(c2ccc(O)cc2)CC1` [compound 18, (4‐(4‐Hydroxyphenyl)piperazin‐1‐yl)(3‐(trifluoromethyl)phenyl)methanone] displayed a melting point of 127 to 128 °C. This molecule yielded an IC50 in data set [1] of 5.5 ± 0.2 µM.

Regarding `O=C(c1ccc(F)cc1F)N1CCN(c2ccc(O)cc2)CC1` [compound 25, (4‐(4‐Hydroxyphenyl)piperazin‐1‐yl)(2,4‐difluorophenyl)methanone], the melting point is 180 to 181 °C. Also, in data set [1], the IC50 is 17.5 ± 1.3 µM.

As for `COc1ccc(C(=O)N2CCN(c3ccc(O)cc3)CC2)cc1` [compound 23, [4‐(4‐Hydroxyphenyl)piperazin‐1‐yl](4‐methoxyphenyl)methanone], the melting point was in the range of 177 to 178 °C. For the same molecule, half-maximal inhibition in data set [1] (IC50) required 14.9 ± 0.7 µM. For `O=C(c1ccc(Br)cc1)N1CCN(c2ccc(O)cc2)CC1` [compound 13, (4‐(4‐Hydroxyphenyl)piperazin‐1‐yl)(4‐bromophenyl)methanone], the melting point is 190 to 191 °C. In addition, the IC50 in data set [1] is 39.6 ± 0.9 µM. In the case of `Cc1ccc(C(=O)N2CCN(c3ccc(O)cc3)CC2)cc1` [compound 16, [4‐(4‐Hydroxyphenyl)piperazin‐1‐yl](4‐methylphenyl)methanone], the melting point lay in the range of 162 to 163 °C. The same molecule yielded an IC50 in data set [1] of 34.4 ± 0.5 µM. On the same counts, the results for `Cc1cccc(C(=O)N2CCN(c3ccc(O)cc3)CC2)c1` [compound 15, [4‐(4‐Hydroxyphenyl)piperazin‐1‐yl](3‐methylphenyl)methanone] are 155 to 156 °C and 31.7 ± 0.5 µM. On the same counts, the results for `O=C(c1ccc([N+](=O)[O-])cc1[N+](=O)[O-])N1CCN(c2ccc(O)cc2)CC1` [compound 31, (4‐(4‐Hydroxyphenyl)piperazin‐1‐yl)(2,4‐dinitrophenyl)methanone] are 225 to 226 °C and 7.6 ± 0.05 µM.

`O=C(c1cccc(Br)c1)N1CCN(c2ccc(O)cc2)CC1` [compound 12, (4‐(4‐Hydroxyphenyl)piperazin‐1‐yl)(3‐bromophenyl)methanone] showed an IC50 in data set [1] of 16.4 ± 1.9 µM. Consider `O=C(c1ccc(C(F)(F)F)cc1)N1CCN(c2ccc(O)cc2)CC1` [compound 19, (4‐(4‐Hydroxyphenyl)piperazin‐1‐yl)(4‐(trifluoromethyl)phenyl)methanone], for which the melting point was in the range of 201 to 202 °C. Besides, in data set [1], the IC50 is 35.1 ± 0.5 µM.

With `Cc1ccc(C(=O)N2CCN(c3ccc(O)cc3)CC2)c(C)c1` [compound 27, [4‐(4‐Hydroxyphenyl)piperazin‐1‐yl](2,4‐dimethylphenyl)methanone], the melting point was in the range of 164 to 165 °C. In data set [1], this molecule returned an IC50 of 33.7 ± 0.7 µM. The molecule `O=C(c1ccc([N+](=O)[O-])cc1)N1CCN(c2ccc(O)cc2)CC1` [compound 30, (4‐(4‐Hydroxyphenyl)piperazin‐1‐yl)(4‐nitrophenyl)methanone] gave a melting point of 157 to 158 °C. The same molecule registered an IC50 in data set [1] of 23.2 ± 1.5 µM. Molecule `Cc1ccccc1C(=O)N1CCN(c2ccc(O)cc2)CC1` [compound 14, [4‐(4‐Hydroxyphenyl)piperazin‐1‐yl](2‐methylphenyl)methanone] yielded a melting point of 127 to 128 °C. The molecule further yielded an IC50 in data set [1] of 29.9 ± 2 µM. In turn, `O=C(c1ccc(-c2ccccc2)cc1)N1CCN(c2ccc(O)cc2)CC1` [compound 3, (4‐(4‐Hydroxyphenyl)piperazin‐1‐yl)(biphenyl‐4‐yl)methanone] registered an IC50 in data set [1] of 128 ± 4.1 µM.
